{"source": "paper PMC11606603", "about": "“The membrane domains of mammalian adenylyl cyclases are lipid receptors” (eLife, 2024)", "key": {"[1]": {"target": "T1, mAC3 (Homo sapiens, UniProt O60266)", "T1 construct": "Human mAC genes were from GenScript and fitted with a C-terminal FLAG-tag; FLAG (C); made in house; host or cells: HEK293, permanently transfected; membrane preparation", "T1 sequence (O60266 whole entry)": "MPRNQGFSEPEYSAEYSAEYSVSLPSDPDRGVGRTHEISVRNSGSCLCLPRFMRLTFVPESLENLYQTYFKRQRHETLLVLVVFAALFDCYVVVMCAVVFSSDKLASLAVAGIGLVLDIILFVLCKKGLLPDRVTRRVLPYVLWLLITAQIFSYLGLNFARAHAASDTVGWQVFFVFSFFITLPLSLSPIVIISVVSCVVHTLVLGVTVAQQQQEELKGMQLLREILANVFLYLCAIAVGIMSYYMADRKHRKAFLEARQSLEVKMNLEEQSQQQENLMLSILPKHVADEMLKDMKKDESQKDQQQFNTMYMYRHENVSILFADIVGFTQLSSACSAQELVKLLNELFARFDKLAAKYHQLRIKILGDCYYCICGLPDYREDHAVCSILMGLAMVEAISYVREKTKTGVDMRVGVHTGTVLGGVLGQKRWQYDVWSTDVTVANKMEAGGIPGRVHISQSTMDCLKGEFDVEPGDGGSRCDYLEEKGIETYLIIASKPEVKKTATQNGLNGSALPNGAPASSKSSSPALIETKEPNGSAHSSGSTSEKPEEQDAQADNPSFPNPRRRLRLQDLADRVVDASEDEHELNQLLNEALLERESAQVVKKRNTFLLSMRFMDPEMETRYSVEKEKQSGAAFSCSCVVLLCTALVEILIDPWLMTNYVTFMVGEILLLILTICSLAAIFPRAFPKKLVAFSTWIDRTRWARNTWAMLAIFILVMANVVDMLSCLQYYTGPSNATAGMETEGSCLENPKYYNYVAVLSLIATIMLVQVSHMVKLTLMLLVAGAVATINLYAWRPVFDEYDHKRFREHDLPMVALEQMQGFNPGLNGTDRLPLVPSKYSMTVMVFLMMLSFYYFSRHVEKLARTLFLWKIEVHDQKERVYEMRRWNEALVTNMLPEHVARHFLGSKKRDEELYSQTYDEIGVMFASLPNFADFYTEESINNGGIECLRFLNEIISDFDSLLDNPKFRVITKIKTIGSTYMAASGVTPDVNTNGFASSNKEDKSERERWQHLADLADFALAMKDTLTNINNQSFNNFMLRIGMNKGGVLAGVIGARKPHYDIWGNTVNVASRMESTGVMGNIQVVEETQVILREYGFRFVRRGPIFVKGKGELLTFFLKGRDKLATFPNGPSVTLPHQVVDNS", "T1 sequence (P63092 whole entry Q227L partner)": "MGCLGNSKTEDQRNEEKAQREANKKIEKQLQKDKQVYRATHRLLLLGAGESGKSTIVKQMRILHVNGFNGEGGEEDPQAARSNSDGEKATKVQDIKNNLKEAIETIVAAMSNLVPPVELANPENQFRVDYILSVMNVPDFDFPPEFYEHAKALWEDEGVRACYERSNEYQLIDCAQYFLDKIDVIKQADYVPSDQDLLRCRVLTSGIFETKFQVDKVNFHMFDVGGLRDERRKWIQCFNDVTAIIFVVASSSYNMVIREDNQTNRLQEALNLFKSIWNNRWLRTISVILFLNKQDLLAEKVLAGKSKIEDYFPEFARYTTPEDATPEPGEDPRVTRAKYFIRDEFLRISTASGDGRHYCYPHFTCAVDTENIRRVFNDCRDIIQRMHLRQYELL", "assay": "AC assay, Gsα-stimulated mAC3 in membranes from transfected HEK293 cells", "format": "biochemical", "settings": "for mAC3 activity + 20µM Oleic acid: Michaelis-Menten; for mAC3 activity [%] (100% = 300nM Gsα stimulation): individual experiments; for mAC3 activity; stimulated by 300nM Gsα + 20µM Oleic acid: 37°C", "summary_of_the_method": "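EC50 and IC50 values come from cAMP production, read with a Cisbio cAMP kit and converted via a standard curve. Assay mix held 1 mM ATP, 2 mM MgCl2, 3 mM creatine phosphate and 60 μg/ml creatine kinase in 50 mM MOPS pH 7.5, using transfected HEK293 membranes.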"}, "[2]": {"target": "T2, mAC5 (Homo sapiens, UniProt O95622)", "T2 construct": "Human mAC genes were from GenScript and fitted with a C-terminal FLAG-tag; FLAG (C); made in house; host or cells: HEK293, permanently transfected; membrane preparation", "T2 sequence (O95622 whole entry)": "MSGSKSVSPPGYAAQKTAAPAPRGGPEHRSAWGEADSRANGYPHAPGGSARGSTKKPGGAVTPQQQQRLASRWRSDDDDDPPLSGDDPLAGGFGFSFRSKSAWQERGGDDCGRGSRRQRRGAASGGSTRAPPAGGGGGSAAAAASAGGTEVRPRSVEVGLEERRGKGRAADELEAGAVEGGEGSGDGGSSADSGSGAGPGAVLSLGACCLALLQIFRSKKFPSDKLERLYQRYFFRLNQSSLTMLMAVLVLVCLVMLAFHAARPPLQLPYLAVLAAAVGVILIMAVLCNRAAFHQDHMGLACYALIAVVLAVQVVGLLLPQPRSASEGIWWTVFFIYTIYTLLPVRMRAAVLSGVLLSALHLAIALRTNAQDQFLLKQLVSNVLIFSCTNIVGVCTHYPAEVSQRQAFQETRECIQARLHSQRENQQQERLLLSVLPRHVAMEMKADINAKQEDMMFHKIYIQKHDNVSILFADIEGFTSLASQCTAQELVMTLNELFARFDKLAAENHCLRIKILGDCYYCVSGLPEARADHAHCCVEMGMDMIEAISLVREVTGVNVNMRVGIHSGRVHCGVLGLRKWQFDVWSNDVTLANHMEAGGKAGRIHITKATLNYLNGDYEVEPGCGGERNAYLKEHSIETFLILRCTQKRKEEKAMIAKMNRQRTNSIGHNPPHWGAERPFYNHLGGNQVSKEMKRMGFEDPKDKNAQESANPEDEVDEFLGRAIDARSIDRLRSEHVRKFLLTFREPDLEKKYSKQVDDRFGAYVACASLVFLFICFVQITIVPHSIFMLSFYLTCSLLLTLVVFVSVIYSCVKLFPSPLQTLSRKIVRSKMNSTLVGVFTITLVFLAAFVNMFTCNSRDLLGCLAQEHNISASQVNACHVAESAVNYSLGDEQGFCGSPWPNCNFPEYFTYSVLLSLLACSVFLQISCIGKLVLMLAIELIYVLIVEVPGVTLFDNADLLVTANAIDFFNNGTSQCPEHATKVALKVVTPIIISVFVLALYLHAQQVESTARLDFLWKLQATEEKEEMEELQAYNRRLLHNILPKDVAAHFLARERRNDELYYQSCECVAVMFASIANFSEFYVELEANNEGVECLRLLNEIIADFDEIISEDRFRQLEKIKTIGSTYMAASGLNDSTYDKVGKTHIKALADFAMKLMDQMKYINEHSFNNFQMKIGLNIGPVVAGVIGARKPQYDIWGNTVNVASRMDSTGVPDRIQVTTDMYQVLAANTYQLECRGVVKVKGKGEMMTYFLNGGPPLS", "assay": "AC assay, Gsα-stimulated mAC5 in membranes from transfected HEK293 cells", "format": "biochemical", "summary_of_the_method": "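cAMP formation was quantified by HTRF against a cAMP standard curve, with EC50 or IC50 derived by curve fitting. Reactions contained 1 mM ATP, 2 mM MgCl2, 3 mM creatine phosphate, 60 μg/ml creatine kinase and 50 mM MOPS pH 7.5, using membranes of stably transfected HEK293 cells carrying FLAG-tagged human AC.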"}}, "note": "Values joined by “and” are separate entries in the source; they are usually repeats but may differ in a detail not shown here. Equal entries are not always repeated. “Also recorded” adds a separate entry of the source."}
{"smiles": "CCCCCCCC/C=C\\CCCCCCCC(=O)O", "note": "[Oleic acid, Oleic ((9Z)-octadecenoic) acid]", "values": [{"measurement": "mAC3 activity + 20µM Oleic acid", "setting": "[1]; ATP 750 µM", "result": "0.817 nmol cAMP/mg/min and 0.753 nmol cAMP/mg/min and 1.192 nmol cAMP/mg/min"}, {"measurement": "mAC3 activity + 20µM Oleic acid", "setting": "[1]; ATP 1000 µM", "result": "0.944 nmol cAMP/mg/min and 1.156 nmol cAMP/mg/min and 1.086 nmol cAMP/mg/min"}, {"measurement": "EC50", "setting": "[1]; enhancement of 300 nM Gsα-stimulated activity", "result": 10.4, "unit": "µM"}, {"measurement": "mAC3 activity [%] (100% = 300nM Gsα stimulation)", "setting": "[1]; fatty acid 0.5 µM", "result": 100, "unit": "%"}, {"measurement": "mAC3 activity [%] (100% = 300nM Gsα stimulation)", "setting": "[1]; fatty acid 1 µM", "result": "112% and 105% and 91% and 64% and 97% and 107% and 78% and 95% and 111% and 139% and 103% and 106% and 87%"}, {"measurement": "mAC3 activity [%] (100% = 300nM Gsα stimulation)", "setting": "[1]; fatty acid 3 µM", "result": "98% and 158% and 97% and 183% and 141% and 160% and 142% and 105% and 145% and 150%"}, {"measurement": "mAC3 activity [%] (100% = 300nM Gsα stimulation)", "setting": "[1]; fatty acid 6 µM", "result": "117% and 105% and 165% and 187% and 143% and 169% (2×) and 166% and 97%"}, {"measurement": "mAC3 activity [%] (100% = 300nM Gsα stimulation)", "setting": "[1]; fatty acid 10 µM", "result": "271% and 106% and 156% and 151% and 142% and 280% and 178% and 252% and 181% and 191% and 139% and 175% and 284% and 260% and 266% and 166%"}, {"measurement": "mAC3 activity [%] (100% = 300nM Gsα stimulation)", "setting": "[1]; fatty acid 20 µM", "result": "341% and 348% and 429% and 323% and 430% and 264% and 322% and 395% and 181% and 452% and 464% and 265% (2×)"}, {"measurement": "mAC3 activity [%] (100% = 300nM Gsα stimulation)", "setting": "[1]; fatty acid 20 µM, listed as Oleic", "result": "298% and 532% and 253% and 428% and 297%"}, {"measurement": "mAC3 activity; stimulated by 300nM Gsα + 20µM Oleic acid", "setting": "[1]; time 3 min", "result": "2.601 cAMP nmol/mg and 2.019 cAMP nmol/mg"}, {"measurement": "mAC3 activity; stimulated by 300nM Gsα + 20µM Oleic acid", "setting": "[1]; time 6 min", "result": "2.734 cAMP nmol/mg and 2.75 cAMP nmol/mg"}, {"measurement": "mAC3 activity; stimulated by 300nM Gsα + 20µM Oleic acid", "setting": "[1]; time 10 min", "result": 3.46, "unit": "cAMP nmol/mg"}, {"measurement": "mAC3 activity; stimulated by 300nM Gsα + 20µM Oleic acid", "setting": "[1]; time 15 min", "result": "4.543 cAMP nmol/mg and 5.759 cAMP nmol/mg"}, {"measurement": "mAC3 activity; stimulated by 300nM Gsα + 20µM Oleic acid", "setting": "[1]; time 20 min", "result": "6.22 cAMP nmol/mg and 8.564 cAMP nmol/mg"}, {"measurement": "mAC3 activity; stimulated by 300nM Gsα + 20µM Oleic acid", "setting": "[1]; time 25 min", "result": "9.573 cAMP nmol/mg and 11.033 cAMP nmol/mg"}, {"measurement": "Vmax, mAC3", "setting": "[1]; with 20 µM oleic acid", "result": 1.23, "unit": "nmol cAMP•mg^−1•min^−1"}, {"measurement": "mAC5 activity [%] (100% = 300nM Gsα stimulation)", "setting": "[2]; 20µM fatty acid concentration", "result": "93% and 117% and 135% and 138%"}, {"measurement": "Effect of lipid on Gsα-stimulated mAC5", "setting": "[2]; 20 µM, in words", "result": "not enhanced; also recorded: unaffected"}, {"measurement": "mAC activity [%] (100% = 300nM Gsα stimulation); 20µM Oleic acid concentration, mAC5", "setting": "[2]; Figure 5 A, 20 µM oleic acid, 300 nM Gsα", "result": "135% and 138% and 161% and 84% and 105% and 93% and 117%"}, {"measurement": "activity, mAC5 + 20µM Oleic acid", "setting": "[2]; Gsα 30 nM", "result": 0.080, "unit": "cAMP nmol/mg/min"}, {"measurement": "activity, mAC5 + 20µM Oleic acid", "setting": "[2]; Gsα 60 nM", "result": "0.233 cAMP nmol/mg/min and 0.334 cAMP nmol/mg/min"}, {"measurement": "activity, mAC5 + 20µM Oleic acid", "setting": "[2]; Gsα 100 nM", "result": "0.353 cAMP nmol/mg/min and 0.362 cAMP nmol/mg/min"}, {"measurement": "activity, mAC5 + 20µM Oleic acid", "setting": "[2]; Gsα 300 nM", "result": "0.752 cAMP nmol/mg/min and 1.165 cAMP nmol/mg/min"}, {"measurement": "activity, mAC5 + 20µM Oleic acid", "setting": "[2]; Gsα 450 nM", "result": "1.160 cAMP nmol/mg/min and 1.405 cAMP nmol/mg/min"}, {"measurement": "activity, mAC5 + 20µM Oleic acid", "setting": "[2]; Gsα 600 nM", "result": "1.213 cAMP nmol/mg/min and 1.684 cAMP nmol/mg/min"}, {"measurement": "activity, mAC5 + 20µM Oleic acid", "setting": "[2]; Gsα 800 nM", "result": "1.245 cAMP nmol/mg/min and 1.702 cAMP nmol/mg/min"}, {"measurement": "activity, mAC5 + 20µM Oleic acid", "setting": "[2]; Gsα 1000 nM", "result": "1.415 cAMP nmol/mg/min and 1.818 cAMP nmol/mg/min"}, {"measurement": "mAC5 activity [%] (100% = 300nM Gsα stimulation)", "setting": "[2]; fatty acid 1 µM, individual experiments", "result": "126% and 196% and 115% and 78% and 64%"}, {"measurement": "mAC5 activity [%] (100% = 300nM Gsα stimulation)", "setting": "[2]; fatty acid 3 µM, individual experiments", "result": "142% and 91% and 87%"}, {"measurement": "mAC5 activity [%] (100% = 300nM Gsα stimulation)", "setting": "[2]; fatty acid 6 µM, individual experiments", "result": "146% and 127% and 77% and 90%"}, {"measurement": "mAC5 activity [%] (100% = 300nM Gsα stimulation)", "setting": "[2]; fatty acid 10 µM, individual experiments", "result": "126% and 140% and 134% and 93%"}, {"measurement": "mAC5 activity [%] (100% = 300nM Gsα stimulation)", "setting": "[2]; fatty acid 20 µM, individual experiments", "result": "93% and 117% and 135% and 138%"}, {"measurement": "activity [%] (100% = 300nM Gsα stimulation)", "setting": "[2]; mAC5, 20µM Oleic acid concentration, Figure 9 C", "result": "161% and 84% and 93% and 117% and 135% and 138%"}]}
